Earlier results, collected in patent US20180008675A1, “USE OF URODILATING FOR PREPARING A MEDICAMENT FOR TREATMENT OF CARDIOVASCULAR, RENAL, PULMONARY, AND NEURONAL SYNDROMES WHILE AVOIDING A REBOUND” (CARDIORENTIS AG, priority 2010, published 2018).

How the values were obtained:
[1] = system: patients with chronic congestive heart failure / acute decompensated heart failure
dogs = dogs (Riegger et al., 1990)
[2] = system: patients with chronic congestive heart failure; conditions: 10-hour infusion, 15 ng/kg/min

Substance: urodilatin
- changes of the cardiac index (CI) ([1]; 15 and 30 ng/kg/min (Mitrovic et al., 2006)): significant increase
- changes of the baseline in pulmonary capillary wedge pressure (PCWP) ([1]; 15 and 30 ng/kg/min, compared with the placebo group (Mitrovic et al., 2006)): significant reductions
- pulmonary capillary wedge pressure (PCWP), loss of effect during infusion ([1]; after 6 to 8 hours of infusion (Mitrovic et al., 2006, FIG. 2A)): slight increase of PCWP
- cardiac index (CI), loss of effect during infusion ([1]; after 6 to 8 hours of infusion (Mitrovic et al., 2006, FIG. 2C)): partial drop of CI
- symptoms, morbidity and mortality ([1]; all doses, acute decompensated heart failure (Mitrovic et al., 2005 and 2006)): significantly improved
- effect compared to other natriuretic peptides, such as ANP (dogs): better effect in dogs
- central venous pressure (CVP) ([2]; NYHA III chronic congestive heart failure (Eisner et al., 1995)): increases slightly already after 5 hours of infusion
- urine flow ([2]; chronic congestive heart failure (Eisner et al., 1995)): loss of action after 8 hours of infusion
